Laboratory results as given in patent US20210198685A1, “PLANTS CONTAINING ELITE EVENT EE-GM4 AND METHODS AND KITS FOR IDENTIFYING SUCH EVENT IN BIOLOGICAL SAMPLES, AND TREATMENT THEREOF” (priority 2018, published 2021).

System: soybean plants containing event EE-GM4
Assay: HPPD inhibitor herbicide tolerance field trials on soybean plants containing EE-GM4
Type: in vivo, Glycine max
Conditions: for average maximum phytotoxicity: plants with EE-GM4; for tolerance / crop damage of plants with EE-GM4, herbicide applied post-emergence / tolerance of plants with EE-GM4 to herbicide applied pre-emergence: field, 2 years; for tolerance / crop damage of plants with EE-GM4, herbicide applied post-emergence: post-emergence at V2-V3 stage with crop oil concentrate and ammonium sulfate, 2x dose (210 gr/ha); for tolerance of plants with EE-GM4 to herbicide applied pre-emergence: 4x dose (420 gr/ha IFT, 840 gr/ha mesotrione)
From the text: Numbers in ( ) below a treatment give the number of trials included in the bar, the number on top of each bar gives the average maximum phytotoxicity value for that treatment. Treatments applied were: IFT=isoxaflutole, MST=mesotrione, PE=pre-emergence, PO=post-emergence (at V2-V3 stage, with adjuvants crop oil concentrate and ammonium sulfate added to increase herbicide activity). Rates shown are in gram active ingredient/hectare (4× dose in pre-emergence, 2× dose in post-emergence).
Tolerance of plants comprising EE-GM4 to HPPD inhibitor herbicides was tested at different locations in the field over 2 years. […] All post-emergence treatments were at the V2-V3 stage, with adjuvants crop oil concentrate and ammonium sulfate added to increase herbicide activity.
The “maximum phytotoxicity” as used herein is the highest phytotoxicity rating recorded at any observation during the duration of a trial (with 3 to 4 observations per trial). In existing weed control applications, a normal (1×) dose for isoxaflutole (IFT) in pre- or post-emergence application and for MST in post-emergence application is 105 gr/ha, and a normal (1×) dose for mesotrione in pre-emergence application is 210 gr/ha.
Also, in several field trials across 2 years, soybean plants with event EE-GM4 had good tolerance towards experimental HPPD inhibitor compound 2-methyl-N-(5-methyl-1,3,4-oxadiazol-2-yl)-3-(methylsulfonyl)-4-(trifluoromethyl)benzamide (U.S. Pat. No. 9,101,141) when applied pre-emergence at 400 gr ai/ha or post-emergence at 200 gr ai/ha, respectively (the average maximum phytotoxicity value for each treatment was below 20%). […] All post-emergence treatments were at the V2-V3 stage, with adjuvants crop oil concentrate and ammonium sulfate added to increase herbicide activity.

CSc1c(C(F)(F)F)ccc(C(=O)Nc2nnnn2C)c1Cl [2-chloro-3-(methylsulfanyl)-N-(1-methyl-1H-tetrazol-5-yl)-4-(trifluoromethyl)benzamide]
average maximum phytotoxicity (post-emergence at 100-150 gr ai/ha, V2-V3 stage with adjuvants): 30%

Cc1nnc(NC(=O)c2ccc(C(F)(F)F)c(S(C)(=O)=O)c2C)o1 [2-methyl-N-(5-methyl-1,3,4-oxadiazol-2-yl)-3-(methylsulfonyl)-4-(trifluoromethyl)benzamide]
average maximum phytotoxicity (post-emergence at 200 gr ai/ha, V2-V3 stage with adjuvants): below 20%
average maximum phytotoxicity (pre-emergence at 400 gr ai/ha, field trials across 2 years): below 20%

CS(=O)(=O)c1cc(C(F)(F)F)ccc1C(=O)c1cnoc1C1CC1 [isoxaflutole, (5-cyclopropyl-4-isoxazolyl)[2-(methylsulfonyl)-4-(trifluoromethyl)phenyl]methanone]
tolerance / crop damage of plants with EE-GM4, herbicide applied post-emergence: crop damage was a bit higher
tolerance of plants with EE-GM4 to herbicide applied pre-emergence: commercially relevant tolerance

CS(=O)(=O)c1ccc(C(=O)C2C(=O)CCCC2=O)c([N+](=O)[O-])c1 [mesotrione, 2-[4-(Methylsulfonyl)-2-nitrobenzoyl]cyclohexane-1,3-dione]
tolerance / crop damage of plants with EE-GM4, herbicide applied post-emergence: commercially relevant tolerance
tolerance of plants with EE-GM4 to herbicide applied pre-emergence: commercially relevant tolerance
